Reference: the supplement of paper PMC10307832

Legend:
Assay in all cases: relative viability (nuclei count vs DMSO), 5 days (fraction); higher = more cells survive
[1] = tested on: BEN
How it was run: (§1)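 For relative viability, nuclei counts in treated wells were divided by those in vehicle wells. Lung cancer cell lines had been pin-tool dosed in 1536-well plates the day after seeding and cultured for 5 days, then fixed and stained in one step (final 0.05% Triton X-100, 1% formaldehyde, 1 ug/ml Hoechst) and imaged at 4×. Doses were one drug alone or a fixed anchor-drug dose plus five library-drug doses (not always all listed) in √10 steps, and values are duplicate-plate medians.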

[2] = tested on: ChaGo-K-1
How it was run: as §1

[3] = tested on: HCC-78
How it was run: as §1

[4] = tested on: LC-2-ad
How it was run: as §1

[5] = tested on: LCLC-97TM1
How it was run: as §1

[6] = tested on: LK-2
How it was run: as §1

[7] = tested on: LU99A
How it was run: as §1

[8] = tested on: LXF-289
How it was run: as §1

[9] = tested on: NCI-H1355
How it was run: as §1

[10] = tested on: NCI-H1651
How it was run: as §1

[11] = tested on: NCI-H1666
How it was run: as §1

[12] = tested on: NCI-H1944
How it was run: as §1

[13] = tested on: NCI-H1975
How it was run: as §1

[14] = tested on: NCI-H2087
How it was run: as §1

[15] = tested on: NCI-H2342
How it was run: as §1

[16] = tested on: NCI-H358
How it was run: as §1

[17] = tested on: NCI-H596
How it was run: as §1

[18] = tested on: NCI-H650
How it was run: as §1

[19] = tested on: NCI-H661
How it was run: as §1

[20] = tested on: NCI-H838
How it was run: as §1

[21] = tested on: PC-3 [JPC-3]
How it was run: as §1

[22] = tested on: SK-MES-1
How it was run: as §1

For COc1cc2nccc(Oc3ccc(NC(=O)Nc4cc(C)on4)c(Cl)c3)c2cc1OC [Tivozanib] + O=C(CCCCCCC(=O)Nc1ccccc1)NO [Vorinostat] (partner 1 µM), the relative viability ([1]; first compound 0.005 µM) was 0.577, the relative viability ([1]; first compound 0.01581 µM) was 0.572 and the relative viability ([1]; first compound 0.05 µM) was 0.586. It also gave a relative viability ([1]; first compound 0.1581 µM) of 0.527, a relative viability ([1]; first compound 0.5 µM) of 0.522 and a relative viability ([2]; first compound 0.005 µM) of 0.692. It also gave a relative viability ([2]; first compound 0.01581 µM) of 0.727, a relative viability ([2]; first compound 0.05 µM) of 0.773 and a relative viability ([2]; first compound 0.1581 µM) of 0.756. For the same molecule, the relative viability ([2]; first compound 0.5 µM) was 0.63, the relative viability ([3]; first compound 0.005 µM) was 0.408 and the relative viability ([3]; first compound 0.01581 µM) was 0.47. The relative viability ([3]; first compound 0.05 µM) was 0.412, the relative viability ([3]; first compound 0.1581 µM) was 0.467 and the relative viability ([3]; first compound 0.5 µM) was 0.363. The relative viability ([4]; first compound 0.005 µM) was 0.704, the relative viability ([4]; first compound 0.01581 µM) was 0.734 and the relative viability ([4]; first compound 0.05 µM) was 0.694. For the same molecule, the relative viability ([4]; first compound 0.1581 µM) was 0.592, the relative viability ([4]; first compound 0.5 µM) was 0.34 and the relative viability ([5]; first compound 0.005 µM) was 0.619. It also gave a relative viability ([5]; first compound 0.01581 µM) of 0.69, a relative viability ([5]; first compound 0.05 µM) of 0.686 and a relative viability ([5]; first compound 0.1581 µM) of 0.732. It also gave a relative viability ([5]; first compound 0.5 µM) of 0.323, a relative viability ([6]; first compound 0.005 µM) of 0.317 and a relative viability ([6]; first compound 0.01581 µM) of 0.352. For the same molecule, the relative viability ([6]; first compound 0.05 µM) was 0.33, the relative viability ([6]; first compound 0.1581 µM) was 0.185 and the relative viability ([6]; first compound 0.5 µM) was 0.186. The relative viability ([7]; first compound 0.005 µM) was 0.43, the relative viability ([7]; first compound 0.01581 µM) was 0.443 and the relative viability ([7]; first compound 0.05 µM) was 0.526. The relative viability ([7]; first compound 0.1581 µM) was 0.358, the relative viability ([7]; first compound 0.5 µM) was 0.402 and the relative viability ([8]; first compound 0.005 µM) was 0.647. The relative viability ([8]; first compound 0.01581 µM) was 0.674, the relative viability ([8]; first compound 0.05 µM) was 0.741 and the relative viability ([8]; first compound 0.1581 µM) was 0.939. It also gave a relative viability ([8]; first compound 0.5 µM) of 0.684, a relative viability ([9]; first compound 0.005 µM) of 0.58 and a relative viability ([9]; first compound 0.01581 µM) of 0.612. For the same molecule, the relative viability ([9]; first compound 0.05 µM) was 0.68, the relative viability ([9]; first compound 0.1581 µM) was 0.437 and the relative viability ([9]; first compound 0.5 µM) was 0.588. For the same molecule, the relative viability ([10]; first compound 0.005 µM) was 0.444, the relative viability ([10]; first compound 0.01581 µM) was 0.53 and the relative viability ([10]; first compound 0.05 µM) was 0.619. It also gave a relative viability ([10]; first compound 0.1581 µM) of 0.519, a relative viability ([10]; first compound 0.5 µM) of 0.471 and a relative viability ([11]; first compound 0.005 µM) of 1.07. For the same molecule, the relative viability ([11]; first compound 0.01581 µM) was 1.01, the relative viability ([11]; first compound 0.05 µM) was 1.11 and the relative viability ([11]; first compound 0.1581 µM) was 1.09. For the same molecule, the relative viability ([11]; first compound 0.5 µM) was 0.978, the relative viability ([12]; first compound 0.005 µM) was 0.443 and the relative viability ([12]; first compound 0.01581 µM) was 0.59. It also gave a relative viability ([12]; first compound 0.05 µM) of 0.534, a relative viability ([12]; first compound 0.1581 µM) of 0.5 and a relative viability ([12]; first compound 0.5 µM) of 0.609. The relative viability ([13]; first compound 0.005 µM) was 0.663, the relative viability ([13]; first compound 0.01581 µM) was 0.731 and the relative viability ([13]; first compound 0.05 µM) was 0.712. It also gave a relative viability ([13]; first compound 0.1581 µM) of 0.699, a relative viability ([13]; first compound 0.5 µM) of 0.666 and a relative viability ([14]; first compound 0.005 µM) of 0.917. For the same molecule, the relative viability ([14]; first compound 0.01581 µM) was 0.685, the relative viability ([14]; first compound 0.05 µM) was 0.663 and the relative viability ([14]; first compound 0.1581 µM) was 0.698. The relative viability ([14]; first compound 0.5 µM) was 0.428, the relative viability ([15]; first compound 0.005 µM) was 0.783 and the relative viability ([15]; first compound 0.01581 µM) was 0.668. It also gave a relative viability ([15]; first compound 0.05 µM) of 0.719, a relative viability ([15]; first compound 0.5 µM) of 0.811 and a relative viability ([16]; first compound 0.005 µM) of 0.652. For the same molecule, the relative viability ([16]; first compound 0.01581 µM) was 0.761, the relative viability ([16]; first compound 0.05 µM) was 0.779 and the relative viability ([16]; first compound 0.1581 µM) was 0.62. It also gave a relative viability ([16]; first compound 0.5 µM) of 0.37, a relative viability ([17]; first compound 0.005 µM) of 0.618 and a relative viability ([17]; first compound 0.01581 µM) of 0.569. It also gave a relative viability ([17]; first compound 0.05 µM) of 0.683, a relative viability ([17]; first compound 0.5 µM) of 0.716 and a relative viability ([18]; first compound 0.005 µM) of 0.348. The relative viability ([18]; first compound 0.01581 µM) was 0.379, the relative viability ([18]; first compound 0.05 µM) was 0.414 and the relative viability ([18]; first compound 0.1581 µM) was 0.29. It also gave a relative viability ([18]; first compound 0.5 µM) of 0.296, a relative viability ([19]; first compound 0.005 µM) of 0.782 and a relative viability ([19]; first compound 0.01581 µM) of 0.776. The relative viability ([19]; first compound 0.05 µM) was 0.789, the relative viability ([19]; first compound 0.1581 µM) was 0.8 and the relative viability ([19]; first compound 0.5 µM) was 0.802. For the same molecule, the relative viability ([20]; first compound 0.005 µM) was 0.75, the relative viability ([20]; first compound 0.01581 µM) was 0.792 and the relative viability ([20]; first compound 0.05 µM) was 0.802. For the same molecule, the relative viability ([20]; first compound 0.1581 µM) was 0.746, the relative viability ([20]; first compound 0.5 µM) was 0.696 and the relative viability ([21]; first compound 0.01581 µM) was 0.814. For the same molecule, the relative viability ([21]; first compound 0.05 µM) was 0.801, the relative viability ([21]; first compound 0.1581 µM) was 0.691 and the relative viability ([21]; first compound 0.5 µM) was 0.592. The relative viability ([22]; first compound 0.005 µM) was 1.03, the relative viability ([22]; first compound 0.01581 µM) was 1.07 and the relative viability ([22]; first compound 0.05 µM) was 1.13. It also gave a relative viability ([22]; first compound 0.1581 µM) of 1.07 and a relative viability ([22]; first compound 0.5 µM) of 0.996.
